The values that follow come from US20040033982A1, “Viral inhibition by n-docosanol” (priority 2001, published 2004).

Assay type in all cases: cell-based
The subject of one assay is wild-type HSV-2. Briefly: Plaque formation by wild-type HSV-2 in Vero cells. Conditions: FIG. 7, Panel A. On the procedure: (§1) FIG. 7 depicts data showing that n-docosanol inhibits acyclovir-resistant HSV-2. Vero cells were cultured in 35-mm wells (6×10^5 cells per well) in medium alone (=none) or in the presence of the indicated concentration of acyclovir, n-docosanol-Pluronic F-68 suspension or control suspension (Pluronic F-68 only). The cultures were inoculated 24 hours later with 150 PFU of either wild-type HSV-2 or an acyclovir-resistant laboratory isolate from the wild-type HSV-2 that was plaque purified and passaged in 20 μg/ml acyclovir 44 hours later, the plates were incubated, fixed, stained, and scored for numbers of plaques. The data presented are means of plaques scored from duplicate cultures. The percent inhibition observed in cultures treated with acyclovir or n-docosanol relative to untreated control cultures is denoted in parentheses.

The test system of assay [1] is acyclovir-resistant HSV-2. Briefly: Plaque formation by acyclovir-resistant HSV-2 in Vero cells. As to conditions: FIG. 7, Panel B. The procedure:
as §1

The test system of the next assay is HSV-1(KOS)gL86. Briefly: Entry of HSV-1(KOS)gL86 into HEp-2 cells (beta-galactosidase, OD600). The procedure: After attachment of HEp2 cells to culture wells, n-docosanol-vehicle, vehicle alone, or no agent (control) was added. Five to six hours after infection, the cells were processed, X-gal was added, and the absorbance at 600 nm was determined.
Twenty-four hours before infection, cultured cells were seeded into 24-well (16-mm) plates at 2.5×10^6 cells/well in 0.5 ml cDMEM supplemented with 10% fetal bovine serum (FES). After cell attachment (4-6 h later) heparin, n-docosanol-surfactant, or surfactant alone was added to the cells in 0.5 ml DMEM/10% FES. The agents were dissolved in the medium at two times the desired final concentration. For infection, 0.7 ml of medium was removed from each well and 25 μl of virus suspension was added to the remaining 0.3 ml to give a virus dose of at least 20 p.f.u./cell The plates were rocked at 37° C. for 3 h and then put in a 37° C. […]
At 5-6 h after infection, the cells were fixed with PES containing 2% formaldehyde and 0.2% glutaraldehyde, washed, then permeabilized with 0.02% NP-40, 0.01% deoxycholate and 2 mM MgCl2. […] To quantify the amount of color in each well the glycerol was removed from all wells that were then washed 3× with distilled H2O. DMSO (0.6 ml) was added to solubilize the dye and, after transferring 100 μl of each sample well from the 24-well plate to a 96-well plate, the OD600 was recorded using a 96-well plate reader. […]

In a further assay the test system is HSV-I. Briefly: Binding of [3H]HSV-I to Vero cells. Conditions: virus at 2 p.f.u./cell; n-docosanol 15 mM. The source says:
Attachment of HSV-I to specific cell surface receptors is unaffected in n-docosanol-treated cells. Previous studies have verified that attachment of HSV-1 to specific cell surface receptors is unaffected in n-docosanol-treated cells. […] Heparin inhibited this interaction 96%.

In the case of `Nc1nc2c(ncn2COCCO)c(=O)[nH]1` [acyclovir, reference compound], the “inhibition of plaque formation” value in the assay on wild-type HSV-2 was “inhibit plaque formation by wild type HSV-2 equally”; in assay [1], “not inhibited”. The “inhibition of the beta-galactosidase signal” value in the assay on HSV-1(KOS)gL86 is “not inhibited”.

Heparin [reference compound]: in the assay with HSV-1(KOS)gL86 (examined between 1 and 10 μg/ml), the “concentration at which inhibition appeared to be complete” value worked out at 6 µg/mL. Besides, in the assay with HSV-I, the “inhibition of [3H]HSV-I binding” value is listed as 96%.
